Results on 20 compounds are retold here after patent publication US12091425B2 (AMGEN INC., priority 2016, dated 2024).

The target of the test is T1, Mcl-1/Bim interaction, recombinant human Mcl-1 (171-327) (Homo sapiens, UniProt Q07820).
T1 construct: made in house
Briefly: Cell free Mcl-1: Bim Affinity Assay (Mcl-1 HTRF). The following applies: cell free Mcl-1:Bim TR-FRET, recombinant human Mcl-1 (171-327). Type of test: binding. A digest of the protocol: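 Displacement of biotinylated Bim 51-76 peptide is followed by TR-FRET. Incubation runs overnight. Duplicate points are fitted with a four-parameter sigmoid to yield IC50.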
A general note: Time-resolved FRET reads energy transfer from a long-lived donor to a nearby acceptor.

T1 sequence (Q07820 171-327): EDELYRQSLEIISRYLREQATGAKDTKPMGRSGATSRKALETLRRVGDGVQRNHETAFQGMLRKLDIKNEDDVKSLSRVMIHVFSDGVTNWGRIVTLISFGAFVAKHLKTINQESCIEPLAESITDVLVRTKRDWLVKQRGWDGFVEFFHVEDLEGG

With `CC[C@@H]1CCCCC[C@H](O)[C@@H]2CC[C@H]2CN2C[C@@]3(CCCc4cc(Cl)ccc43)COc3ccc(cc32)C(=O)NS1(=O)=O` [Example 554, (1S,3′R,6′R,7′S,13′R)-6-chloro-13′-ethyl-7′-hydroxy-3,4-dihydro-2H,16′H-spiro[naphthalene-1,23′-[21]oxa[14]thia[1,15]diazatetracyclo[15.7.2.0^3,6.0^20,25]hexacosa[17,19,25]trien]-16′-one 14′,14′-dioxide], the IC50 – broadly, the concentration needed to halve the response being measured – worked out at 1.83 nM.
With `C[C@@H]1CC/C=C/[C@H](NC(=O)N(C)C)[C@@H]2CC[C@H]2CN2C[C@@]3(CCCc4cc(Cl)ccc43)COc3ccc(cc32)C(=O)NS1(=O)=O` [Example 601, 3-((1S,3′R,6′R,7′S,8′E,12′R)-6-chloro-12′-methyl-13′,13′-dioxido-15′-oxo-3,4-dihydro-2H-spiro[naphthalene-1,22′-[20]oxa[13]thia[1,14]diazatetracyclo[14.7.2.0^3,6.0^19,24]pentacosa [8,16,18,24]tetraen]-7′-yl)-1,1-dimethylurea-trifluoroacetate] the figure was 1.33 nM; with `C[C@@H]1CC/C=C/C(=O)[C@@H]2CC[C@H]2CN2C[C@@]3(CCCc4cc(Cl)ccc43)COc3ccc(cc32)C(=O)NS1(=O)=O` [Example 604, (1S,3′R,6′R,8′E,12′R)-6-chloro-12′-methyl-3,4-dihydro-2H,7′H,15′H-spiro[naphthalene-1,22′-[20]oxa[13]thia[1,14]diazatetracyclo[14.7.2.0^3,6.0^19,24]pentacosa [8,16,18,24]tetraene]-7′,15′-dione 13′,13′-dioxide], 9.58 nM.
Take `C[C@@H]1CC/C=C/[C@H](O)[C@@H]2CC[C@H]2CN2C[C@@]3(CCc4cc(Cl)ccc43)COc3ccc(cc32)C(=O)NS1(=O)=O` [Example 698, (1S,3′R,6′R,7′S,8′E,12′R)-5-chloro-7′-hydroxy-12′-methyl-2,3-dihydro-15′H-spiro[indene-1,22′-[20]oxa[13]thia[1,14]diazatetracyclo[14.7.2.0^3,6.0^19,24]pentacosa [8,16,18,24]tetraen]-15′-one 13′,13′-dioxide]: the 50% inhibitory concentration (IC50) amounted to 0.679 nM.
In the case of `C[C@@H]1CCC[C@H](O)[C@@H]2CC[C@H]2CN2C[C@@]3(CCCc4cc(Cl)ccc43)COc3ccc(cc32)C(=O)NS1(=O)=O` [Example 761, (1S,3′R,6′R,7′S,11′R)-6-chloro-7′-hydroxy-11′-methyl-3,4-dihydro-2H,14′H-spiro[naphthalene-1,21′-[19]oxa[12]thia[1,13]diazatetracyclo[13.7.2.0^3,6.0^18,23]tetracosa[15,17,23]trien]-14′-one 12′,12′-dioxide], the concentration for half-maximal inhibition (IC50) was determined as 1.78 nM.
To `CC[C@@H]1C/C=C/[C@H](O)[C@@H]2CC[C@H]2CN2C[C@@]3(CCCc4cc(Cl)ccc43)COc3ccc(cc32)C(=O)NS1(=O)=O` [Example 762, (1S,3′R,6′R,7′S,8′E,11′R)-6-chloro-7′-hydroxy-11′-ethyl-3,4-dihydro-2H,14′H-spiro[naphthalene-1,21′-[19]oxa[12]thia[1,13]diazatetracyclo[13.7.2.0^3,6.0^18,23]tetracosa[8,15,17,23]tetraen]-14′-one 12′,12′-dioxide] belongs 0.576 nM; to `CC[C@@H]1C/C=C/[C@H](OC)[C@@H]2CC[C@H]2CN2C[C@@]3(CCCc4cc(Cl)ccc43)COc3ccc(cc32)C(=O)NS1(=O)=O` [Example 763, (1S,3′R,6′R,7′S,8′E,11′R)-6-chloro-11′-ethyl-7′-methoxy-3,4-dihydro-2H,14′H-spiro[naphthalene-1,21′-[19]oxa[12]thia[1,13]diazatetracyclo[13.7.2.0^3,6.0^18,23]tetracosa[8,15,17,23]tetraen]-14′-one 12′,12′-dioxide], 2.93 nM; to `CC1(C)C/C=C/[C@H](O)[C@@H]2CC[C@H]2CN2C[C@@]3(CCCc4cc(Cl)ccc43)COc3ccc(cc32)C(=O)NS1(=O)=O` [Example 769, (1S,3′R,6′R,7′S,8′E)-6-chloro-7′-hydroxy-11′,11′-dimethyl-3,4-dihydro-2H,14′H-spiro[naphthalene-1,21′-[19]oxa[12]thia[1,13]diazatetracyclo[13.7.2.0^3,6.0^18,23]tetracosa[8,15,17,23]tetraen]-14′-one 12′,12′-dioxide], 0.971 nM.
To `CC1(C)CCC[C@H](O)[C@@H]2CC[C@H]2CN2C[C@@]3(CCCc4cc(Cl)ccc43)COc3ccc(cc32)C(=O)NS1(=O)=O` [Example 770, (1S,3′R,6′R,7′S)-6-chloro-7′-hydroxy-11′,11′-dimethyl-3,4-dihydro-2H,14′H-spiro[naphthalene-1,21′-[19]oxa[12]thia[1,13]diazatetracyclo[13.7.2.0^3,6.0^18,23]tetracosa[15,17,23]trien]-14′-one 12′,12′-dioxide] belongs 1.33 nM; to `O=C1NS(=O)(=O)C/C=C/C[C@H](O)[C@@H]2CC[C@H]2CN2C[C@@]3(CCCc4cc(Cl)ccc43)COc3ccc1cc32` [Example 771, (1S,3′R,6′R,7′S,9′E)-6-chloro-7′-hydroxy-3,4-dihydro-2H,14′H-spiro[naphthalene-1,21′-[19]oxa[12]thia[1,13]diazatetracyclo [13.7.2.0^3,6.0^18,23]tetracosa[9,15,17,23]tetraen]-14′-one 12′,12′-dioxide], 4.09 nM; to `O=C1NS(=O)(=O)CCOCC[C@H](O)[C@@H]2CC[C@H]2CN2C[C@@]3(CCCc4cc(Cl)ccc43)COc3ccc1cc32` [Example 779, (3′R,6′R,7S,22S)-6′-chloro-7-hydroxy-3′,4′-dihydro-2′H,15H-spiro[10,20-dioxa-13-thia-1,14-diazatetracyclo[14.7.2.0^3,6.0^19,24]pentacosa-16,18,24-triene-22, 1′-naphthalen]-15-one-13, 13-dioxide or (3′R,6′R,7R,22S)-6′-chloro-7-hydroxy-3′,4′-dihydro-2′H,15H-spiro[10,20-dioxa-13-thia-1,14-diazatetracyclo[14.7.2.0^3,6.0^19,24]pentacosa-16,18,24-triene-22, 1′-naphthalen]-15-one-13, 13-dioxide], 5.55 nM.
To `CC[C@@H]1CC/C=C/[C@H](OC2COC2)[C@@H]2CC[C@H]2CN2C[C@@]3(CCCc4cc(Cl)ccc43)COc3ccc(cc32)C(=O)NS1(=O)=O` [Example 783, (1S,3′R,6′R,7′S,8′E,12′R)-6-chloro-12′-ethyl-7′-(3-oxetanyloxy)-3,4-dihydro-2H,15′H-spiro[naphthalene-1,22′-[20]oxa[13]thia[1,14]diazatetracyclo [14.7.2.0^3,6.0^19,24]pentacosa[8,16,18,24]tetraen]-15′-one 13′,13′-dioxide] belongs 1.04 nM; to `O=C1NS(=O)(=O)CC/C=C\C[C@H](O)[C@@H]2CC[C@H]2CN2C[C@@]3(CCCc4ccccc43)COc3ccc1cc32` [Example 807, (1S,3′R,6′R,7′S,9′Z)-7′-hydroxy-3,4-dihydro-2H,15′H-spiro[naphthalene-1,22′-[20]oxa[13]thia [1,14]diazatetracyclo[14.7.2.0^3,6.0^19,24]pentacosa[9,16,18,24]tetraen]-15′-one 13′,13′-dioxide], 42.3 nM.
With `O=C1NS(=O)(=O)C/C=C/CC[C@H](O)[C@@H]2CC[C@H]2CN2C[C@@]3(CCCc4cc(Cl)ccc43)COc3ccc1cc32` [Example 808, (1S,3′R,6′R,7′S,10′E)-6-chloro-7′-hydroxy-3,4-dihydro-2H,15′H-spiro[naphthalene-1,22′-[20]oxa[13]thia[1,14]diazatetracyclo[14.7.2.0^3,6.0^19,24]pentacosa [10,16,18,24]tetraen]-15′-one 13′,13′-dioxide], the IC50 was 1.54 nM.
In the case of `O=C1NS(=O)(=O)CCOC/C=C/[C@@H]2CC[C@H]2CN2C[C@@]3(CCc4cc(Cl)ccc43)COc3ccc1cc32` [Example 817, (3R,6S,7E,22S)-5′-chloro-2′,3′-dihydro-15H-spiro[10,20-dioxa-13-thia-1,14-diazatetracyclo[14.7.2.0^3,6.0^19,24]pentacosa-7,16,18,24-tetraene-22,1′-inden]-15-one 13,13-dioxide], the IC50 amounted to 29.3 nM.
As for `O=C1NS(=O)(=O)CCCCC[C@@H]2CC[C@H]2CN2C[C@@]3(CCCc4cc(Cl)ccc43)COc3ccc1cc32` [Example 818, (1S,3′R,6′R)-6-chloro-3,4-dihydro-2H,14′H-spiro[naphthalene-1,21′-[19]oxa[12]thia[1,13]diazatetracyclo[13.7.2.0^3,6.0^18,23]tetracosa[15,17,23]trien]-14′-one 12′,12′-dioxide], the IC50 was found to be 13.6 nM.
With `O=C1NS(=O)(=O)CCCCC[C@@H]2CC[C@H]2CN2C[C@@]3(CCCc4ccccc43)COc3ccc1cc32` [Example 823, (1S,3′R,6′R)-3,4-dihydro-2H,14′H-spiro[naphthalene-1,21′-[19]oxa[12]thia[1,13]diazatetracyclo[13.7.2.0^3,6.0^18,23]tetracosa [15,17,23]trien]-14′-one 12′,12′-dioxide] the figure was 48.2 nM; with `O=C1NS(=O)(=O)CC/C=C/[C@@H]2CC[C@H]2CN2C[C@@]3(CCCc4cc(Cl)ccc43)COc3ccc1cc32` [Example 825, (1S,3′R,6′S, 7′E)-6-chloro-3,4-dihydro-2H,13′H-spiro[naphthalene-1,20′-[18]oxa[11]thia[1,12]diazatetracyclo[12.7.2.0^3,6.0^17,22]tricosa[7,14,16,22]tetraen]-13′-one 11′,11′-dioxide], 26.4 nM; with `O=C1NS(=O)(=O)CCC/C=C/[C@@H]2CC[C@H]2CN2C[C@@]3(CCCc4cc(Cl)ccc43)COc3ccc1cc32` [Example 829, (1S,3′R,6′S, 7′E)-6-chloro-3,4-dihydro-2H,14′H-spiro[naphthalene-1,21′-[19]oxa[12]thia[1,13]diazatetracyclo[13.7.2.0^3,6.0^18,23]tetracosa [7,15,17,23]tetraen]-14′-one 12′,12′-dioxide], 9.87 nM.
To `O=C1NS(=O)(=O)CCCC[C@@H]2CC[C@H]2CN2C[C@@]3(CCCc4cc(Cl)ccc43)COc3ccc1cc32` [Example 830, (1S,3′S,6′S)-6-chloro-3,4-dihydro-2H,13′H-spiro[naphthalene-1,20′-[18]oxa[11]thia[1,12]diazatetracyclo[14.7.2.0^3,6.0^19,24]tricosa[14, 16,22]trien]-13′-one 11′,11′-dioxide] belongs 21.1 nM.
